System: KCNQ channel protein
Assay: 1D 13C half filtered 1H-1H NMR NOE fragment screening
Assay type: binding, rat
Settings: example of FIG. 3; mono- or di-methylated fragment A of DMP543; KCNQ protein solution
Source text: The above-described NMR fragment assembly methods may be utilized to identify ligands for the KCNQ potassium channel, which can be affinity-purified from rat brain extracts using an affinity column with ligands such as DMP543, XE991 or linopirdine, covalently attached to a resin. The KCNQ channel is a membrane-bound protein and is considered large for NMR studies. […] Indeed, such methods have been recently applied to G-protein coupled receptors by using difference spectra in order to remove potential spectral artifacts from NMR experiments from chemical fragments that penetrate the lipid layer (Assadi-Porter et al, 2008). An important variation to that procedure (and inter-ligand NOE studies, as in FIG. 1), which is employed as part of the presently disclosed methods is to chemically place a ^13C labeled methyl group as an NMR reported group (the “NMR probe”), analogous to the antenna in FIG. 1. […] These experiments can be done on a 400 MHz, 500 MHz, 600 MHz or higher field NMR spectrometer, ideally equipped with a cryoprobe (and cryocooled ^13C preamp). […]
As a control in these experiments, the measured NOE or saturation transfer signal might be of the sample (perhaps a tissue extract) that has had the protein target removed (KCNQ in this case), which could be done using an affinity column. […]

SMILES: Cc1ccnc(F)c1 [2-fluoro-4-methylpyridine]
- NOE signal between 13CH3 group of fragment A and methyl group of fragment B (binding within 5 angstroms): can show an NOE signal
